Series [1] deals with oxotremorine-induced secretion of saliva. The experiment in a line: Oxotremorine test: inhibition of oxotremorine-induced salivation. The class given is in vivo, rat (Crl:COBS-CD(SD) BR, female albino). To be noted: Rattus norvegicus, iv, read-out: Oxotremorine Tests: Inhibition of Salivation ED50. The method, then:
Oxotremorine, a specific agonist at muscarinic receptors, produces lesions of the gastric mucosa in rats and increases the secretion of saliva. This test model was chosen to be able to determine any selective activity of an antimuscarinic substance on the stomach.
Ten female albino rats (of the Crl:COBS-CD(SD) BR strain) with a body weight of from 120 to 150 gm were used for each treatment group. These rats were given free access to drinking water but were deprived of food for 24 hours before the start of the test.
To determine, in preliminary tests, the muscarinic effect of oxotremorine on each of the symptoms investigated, a dosage-activity curve was plotted with at least three doses for each symptom.
When testing antimuscarinic substances, the oxotremorine dosage used was the dosage which triggered the symptom to be influenced in 90 to 100% of the animals in the preliminary tests.
Secretion of saliva: 0.083 mg/kg i.v.
Each antimuscarinic substance was administered in uniformly graduated dosages by intravenous route 15 minutes before the administration of oxotremorine. Control groups were given the solvent and suspension agent in corresponding amounts instead of the test substance.
The results were expressed as the percentage inhibition of the oxotremorine effect (percentage of the animals without the symptom in question). The ED50 values were determined using the method of LITCHFIELD and WILCOXON (J. Pharmacol. Exp. Ther. 96, 99, 1949).

Series [2] can be described thus: Mydriasis (effect on pupil size). Particulars: rat, in vivo, iv, pupil size observed for ten minutes. The method, then: The effect of the test substances on the pupil size in rats was investigated as follows:
The substances were administered intravenously to groups of ten animals in at least three uniformly graduated dosages. The pupil size was then observed for ten minutes to see if there were any changes (the occurrence of mydriasis or miosis), and the test was carried out blind, i.e., the investigator was not aware of the preliminary treatment received by the animals. The percentage of test animals in which mydriasis occurred was determined. The ED50 values were again determined according to LITCHFIELD and WILCOXON (see above).

Series [3] deals with T1, muscarinic receptors (smooth muscle from fundus of stomach) (Rattus norvegicus, UniProt P10980).
T1 construct: Smooth muscle of the fundic section of the stomach was separated from the gastric mucosa; from tissue; host or cells: fundic smooth muscle homogenate of the stomach of male Sprague-Dawley rats
T1 sequence (P10980 1-466): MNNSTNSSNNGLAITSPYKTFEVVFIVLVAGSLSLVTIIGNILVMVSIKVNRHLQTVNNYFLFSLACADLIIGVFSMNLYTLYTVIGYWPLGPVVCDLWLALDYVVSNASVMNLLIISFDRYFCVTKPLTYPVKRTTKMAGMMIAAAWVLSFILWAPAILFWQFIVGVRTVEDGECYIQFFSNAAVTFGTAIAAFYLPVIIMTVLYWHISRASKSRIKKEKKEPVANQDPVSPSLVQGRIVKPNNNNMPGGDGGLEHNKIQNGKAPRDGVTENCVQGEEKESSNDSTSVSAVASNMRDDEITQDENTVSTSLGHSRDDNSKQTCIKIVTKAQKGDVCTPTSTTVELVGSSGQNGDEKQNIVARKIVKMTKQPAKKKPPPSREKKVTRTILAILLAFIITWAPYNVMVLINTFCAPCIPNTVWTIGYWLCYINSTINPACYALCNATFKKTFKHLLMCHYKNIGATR
The experiment in a line: Muscarinic receptor binding (inhibition of specific 3H-N-methylscopolamine binding), smooth muscle from fundus of stomach. The arrangement: species or system rat (male Sprague-Dawley). The method, then: (§1) Determination of the IC50 value
(§2) The organ donors were male Sprague-Dawley rats weighing from 180 to 220 gm. After the removal of the stomach and cerebral cortex, all the other steps were carried out in ice-cold HepesHCl buffer (pH 7.4:100 m molar NaCl, 10 m molr MgCl2). Smooth muscle of the fundic section of the stomach was separated from the gastric mucosa and subjected to preliminary homogenization. All the organs were then homogenized in a potter apparatus.
(§3) For the binding test, the homogenized organ preparations were diluted as follows:
Smooth muscle from the funding of the stomach: 1:100.
(§4) The homogenized organ preparations were incubated in an Eppendorf centrifugal tube at 30° C. with a specific concentration of the radioligand and a concentration series of the non-radioactive test substances. The period of incubation was 45 minutes. 0.3N molar ^3 H-N-methylscopolamine (^3 H-NMS) was used as the radioligand. After the incubation had been stopped by centrifuging at 14,000 g, the radioactivity in the pellet was determined. It represents the sum of specific and non-specific binding of ^3 H-NMS. The proportion of non-specific binding was defined as the radioactivity which was bound in the presence of 1μ molar quinuclidinyl benzylate. Four measurements were taken in each case. The IC50 values of the non-labelled test substances were determined graphically. They represent the concentration of test substance at which the specific binding of ^3 H-NMS to the muscarinic receptors in the various organs was inhibited by 50%.

The target of series [4] is muscarinic receptors (cerebral cortex). The series is described as follows: Muscarinic receptor binding (inhibition of specific 3H-N-methylscopolamine binding), cerebral cortex. Set-up: species or system rat (male Sprague-Dawley). Particulars: rat cerebral cortex homogenate 1:3000, 3H-NMS, 30° C., 45 minutes; read-out: Receptor Binding Tests IC50, Cortex. The method, then:
as §1, §2, §3
as §4, with “They represent the concentration of test substance at which the specific binding of ^3 H-NMS to the muscarinic receptors in the various organs was inhibited by 50%.” left out

For the molecule `CN1CCC(NC(=O)C2c3ccccc3NC(=O)c3ccccc32)CC1` (centres unmarked) [A, 5,11-Dihydro-11-[[(1-methyl-4-piperidinyl)-amino]-carbonyl]-6H-dibenz[b,e]azepin-6-one], the median effective dose (ED50) (as a rule, the dose that gives a 50% effect, or the effect in half of the subjects) in series [1] was determined as 0.19 mg/kg. The molecule also had an ED50 at 10 min in series [2] of 0.075 mg/kg. Besides, the concentration for half-maximal inhibition (IC50) (commonly the concentration needed to halve the response being measured) in series [3] is 700 nM; in series [4], 40 nM.

As to `CN1CCC(CC(=O)C2c3ccccc3NC(=O)c3ccccc32)CC1` (centres unmarked) [B, 5,11-Dihydro-11-[(1-methyl-4-piperidinyl)-acetyl]-6H-dibenz[b,e]azepin-6-one], in series [1], the ED50 was determined as 0.186 mg/kg. The same molecule registered an ED50 at 10 min in series [2] of 0.179 mg/kg. In addition, the IC50 came to 150 nM in series [3] and 25 nM in series [4].

For `CN1CCN(CC(=O)C2c3ccccc3NC(=O)c3ccccc32)CC1` (centres unmarked) [C, 5,11-Dihydro-[(4-methyl-1-piperazinyl)-acetyl]-6H-dibenz[b,e]azepin-6-one], the 50% effective dose (ED50) in series [1] turned out to be 0.335 mg/kg. Besides, in series [2], the 50% effective dose (ED50) at 10 min turned out to be 0.161 mg/kg. The molecule also registered an IC50 in series [3] of 400 nM.

The values above are taken from patent publication US4567178A, “Substituted 5,11-dihydro-6H-dibenz[b,e]azepin-6-ones and pharmaceutical compositions containing same” (Dr. Karl Thomae GmbH, priority 1984, dated 1986).
